Columns and labels:
SERT = SERT (Homo sapiens, UniProt P31645); assay: SAFETYscan Transporter SERT Blocker; assay type: cell-based
Text: (§1) Supplement jm3c00155_si_002.xlsx, sheet "SAFETYScan" | column: RC50 (uM); Max Response

HRH1 = HRH1 (Homo sapiens, UniProt P35367); assay: SAFETYscan Calcium Flux HRH1 Antagonist; assay type: cell-based
Text: as §1

HTR2B = HTR2B (Homo sapiens, UniProt P41595); assay: SAFETYscan Calcium Flux HTR2B Antagonist; assay type: cell-based
Text: as §1

CAV1.2 = CAV1.2 (Homo sapiens, UniProt Q13936); assay: in vitro; assay type: cell-based
Text: as §1

MAOA = MAOA (Homo sapiens, UniProt P21397); assay: SAFETYscan Enzymatic MAOA Inhibitor; assay type: biochemical
Text: as §1

ARID3A mRNA = ARID3A mRNA in Karpas 422 tumour xenografts (quantitative RT-PCR); assay type: in vivo, mouse; conditions: 50 mg/kg PO, 12 h post dose, TaqMan PCR
Protocol: frozen in liquid nitrogen, dedicating one half to PK analysis and the other half to pharmacodynamic analysis (PD). All frozen material was permanently stored in a -80°C freezer.
5.3.5 Tumour lysis and Wes method
Tumours were lysed in lysis buffer (50 mM Tris-HCl, pH 7.4, 150 mM NaCl, 1% Triton X-100 (v/v), 1 mM PMSF, 1 mM activated sodium vanandate, 1 mM EDTA, phosphatase inhibitors 2 and 3 (1:50m dilution) and protease cocktail (1:100 dilution)) using reinforced homogenizing tubes containing metal beads using a Precellys 24 with cryolys cooling at 6000 rpm, 2 × 20 s (Stretton Scientific). Lysates were incubated on ice for 15 minutes, spun at 14000 rpm at 4 °C for 10 minutes and supernatants collected and aliquoted.
Samples were stored at -80 °C until use. Protein concentration was determined by diluting 1:10 with lysis buffer and measuring on Direct Detect® spectrometer according to manufacturer’s instructions.
Protein lysates were diluted to 0.0875 mg/ml with 0.1x sample buffer and run on Wes 12-230 kDa kit according to manufacturer’s instructions (ProteinSimple) with multiplexing BCL6 (CST14895 at 1:150 dilution) and GAPDH (CST 2118 at 1:50 dilution). Data was analysed using Compass for SW software. […]
5.3.6 Quantitative RT-PCR […]
(ThermoFisher Scientific). ARID3A expression relative to vehicle-treated tumours was determined using […]

GABAA = GABAA (Homo sapiens, UniProt P14867+P18507+P47870); assay: SAFETYscan Ion Channel GABAA Blocker; assay type: cell-based
Text: as §1

COX1 = COX1 (Homo sapiens, UniProt P23219); assay: SAFETYscan Enzymatic COX1 Inhibitor; assay type: biochemical
Text: Supplement jm3c00155_si_002.xlsx, sheet "SAFETYScan" | column: RC50 (uM); Hill; Max Response

HTR1A [1] = target: T1, HTR1A (Homo sapiens, UniProt P08908); assay: SAFETYscan cAMP HTR1A Antagonist; assay type: cell-based
T1 sequence (P08908 1-422): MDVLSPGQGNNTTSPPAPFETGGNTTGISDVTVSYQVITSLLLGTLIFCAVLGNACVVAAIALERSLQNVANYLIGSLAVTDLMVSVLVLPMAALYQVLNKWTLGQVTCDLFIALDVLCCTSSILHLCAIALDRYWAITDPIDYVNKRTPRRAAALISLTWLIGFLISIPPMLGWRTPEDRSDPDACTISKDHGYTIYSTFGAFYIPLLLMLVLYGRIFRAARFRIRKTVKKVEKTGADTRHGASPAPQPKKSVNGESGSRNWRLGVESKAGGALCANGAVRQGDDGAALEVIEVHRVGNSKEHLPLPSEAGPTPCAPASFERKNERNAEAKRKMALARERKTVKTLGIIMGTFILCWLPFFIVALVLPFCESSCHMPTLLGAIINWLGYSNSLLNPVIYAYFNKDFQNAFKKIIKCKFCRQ
Text: as §1

CHRM1 = target: T2, CHRM1 (Homo sapiens, UniProt P11229); assay: SAFETYscan Calcium Flux CHRM1 Antagonist; assay type: cell-based
T2 sequence (P11229 1-460): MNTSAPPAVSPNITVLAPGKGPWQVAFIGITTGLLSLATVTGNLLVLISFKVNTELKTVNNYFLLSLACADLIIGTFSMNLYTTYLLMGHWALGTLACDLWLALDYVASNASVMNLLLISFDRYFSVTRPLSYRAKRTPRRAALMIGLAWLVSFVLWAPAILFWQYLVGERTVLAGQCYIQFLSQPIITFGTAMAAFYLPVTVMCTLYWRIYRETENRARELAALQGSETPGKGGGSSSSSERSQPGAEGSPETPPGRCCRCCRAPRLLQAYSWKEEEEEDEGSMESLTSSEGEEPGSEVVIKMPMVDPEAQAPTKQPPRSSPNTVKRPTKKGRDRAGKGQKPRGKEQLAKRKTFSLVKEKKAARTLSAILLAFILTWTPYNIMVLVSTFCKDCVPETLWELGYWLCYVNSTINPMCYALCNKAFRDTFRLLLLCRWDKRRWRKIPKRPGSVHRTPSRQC
Text: as §1

HTR1A [2] = target: T1, HTR1A; assay: SAFETYscan cAMP HTR1A Agonist; assay type: cell-based
Text: as §1

OPRK1 = OPRK1 (Homo sapiens, UniProt P41145); assay: SAFETYscan cAMP OPRK1 Antagonist; assay type: cell-based
Text: as §1

COX1, sequence (P23219 24-599): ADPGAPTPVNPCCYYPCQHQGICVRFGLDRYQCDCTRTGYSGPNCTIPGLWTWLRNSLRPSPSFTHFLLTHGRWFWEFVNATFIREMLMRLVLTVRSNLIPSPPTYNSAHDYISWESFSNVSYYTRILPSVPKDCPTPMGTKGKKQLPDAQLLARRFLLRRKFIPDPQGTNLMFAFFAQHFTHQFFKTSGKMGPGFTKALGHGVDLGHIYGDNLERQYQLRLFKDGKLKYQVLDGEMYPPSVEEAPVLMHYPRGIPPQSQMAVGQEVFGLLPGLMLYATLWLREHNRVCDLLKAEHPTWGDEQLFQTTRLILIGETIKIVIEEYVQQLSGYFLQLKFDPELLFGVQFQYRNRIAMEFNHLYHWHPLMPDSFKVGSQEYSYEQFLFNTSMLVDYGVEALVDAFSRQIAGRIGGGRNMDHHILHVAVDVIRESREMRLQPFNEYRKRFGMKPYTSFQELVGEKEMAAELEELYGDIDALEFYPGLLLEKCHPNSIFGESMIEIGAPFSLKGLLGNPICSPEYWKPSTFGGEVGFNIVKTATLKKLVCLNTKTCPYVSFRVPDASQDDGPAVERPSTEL
HTR2B, sequence (P41595 whole entry): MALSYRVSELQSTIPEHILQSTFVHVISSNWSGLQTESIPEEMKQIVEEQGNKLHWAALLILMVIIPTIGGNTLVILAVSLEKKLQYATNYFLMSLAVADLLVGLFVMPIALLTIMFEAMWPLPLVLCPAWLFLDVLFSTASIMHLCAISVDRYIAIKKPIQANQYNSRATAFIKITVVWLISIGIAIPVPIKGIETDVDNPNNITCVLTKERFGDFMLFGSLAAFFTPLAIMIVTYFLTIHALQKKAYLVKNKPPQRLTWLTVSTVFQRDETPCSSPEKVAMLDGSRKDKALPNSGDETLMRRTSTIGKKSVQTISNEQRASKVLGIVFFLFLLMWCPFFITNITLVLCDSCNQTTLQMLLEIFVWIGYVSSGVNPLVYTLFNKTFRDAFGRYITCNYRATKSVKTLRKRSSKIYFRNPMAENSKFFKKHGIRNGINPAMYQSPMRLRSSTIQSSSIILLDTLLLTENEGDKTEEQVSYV
OPRK1, sequence (P41145 whole entry): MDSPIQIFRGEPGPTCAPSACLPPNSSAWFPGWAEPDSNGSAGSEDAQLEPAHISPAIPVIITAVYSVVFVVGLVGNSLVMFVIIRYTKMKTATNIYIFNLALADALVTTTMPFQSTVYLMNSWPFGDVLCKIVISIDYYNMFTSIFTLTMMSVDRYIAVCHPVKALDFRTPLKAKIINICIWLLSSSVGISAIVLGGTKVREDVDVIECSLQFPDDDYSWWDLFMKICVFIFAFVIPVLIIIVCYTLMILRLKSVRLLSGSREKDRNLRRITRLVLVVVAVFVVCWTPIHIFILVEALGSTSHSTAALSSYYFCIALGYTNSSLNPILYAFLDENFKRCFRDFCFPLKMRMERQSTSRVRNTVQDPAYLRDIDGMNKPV
SERT, sequence (P31645 whole entry, species assumed): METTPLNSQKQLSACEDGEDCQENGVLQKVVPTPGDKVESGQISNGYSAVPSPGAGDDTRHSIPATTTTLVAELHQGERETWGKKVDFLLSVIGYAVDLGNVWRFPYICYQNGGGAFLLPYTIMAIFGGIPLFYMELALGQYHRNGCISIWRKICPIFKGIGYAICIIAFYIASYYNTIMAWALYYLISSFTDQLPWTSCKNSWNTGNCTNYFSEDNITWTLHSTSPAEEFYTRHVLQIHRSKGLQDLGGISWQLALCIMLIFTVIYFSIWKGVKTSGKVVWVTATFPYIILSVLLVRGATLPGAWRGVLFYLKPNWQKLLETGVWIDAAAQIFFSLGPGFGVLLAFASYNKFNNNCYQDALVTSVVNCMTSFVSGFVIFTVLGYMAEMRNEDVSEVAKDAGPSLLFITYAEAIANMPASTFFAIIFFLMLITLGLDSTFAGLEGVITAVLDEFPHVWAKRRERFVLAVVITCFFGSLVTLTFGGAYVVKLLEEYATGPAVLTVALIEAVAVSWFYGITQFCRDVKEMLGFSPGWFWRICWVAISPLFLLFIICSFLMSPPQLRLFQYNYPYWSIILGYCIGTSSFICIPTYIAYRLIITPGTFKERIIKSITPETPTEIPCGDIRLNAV
GABAA, sequence (P14867 28-456): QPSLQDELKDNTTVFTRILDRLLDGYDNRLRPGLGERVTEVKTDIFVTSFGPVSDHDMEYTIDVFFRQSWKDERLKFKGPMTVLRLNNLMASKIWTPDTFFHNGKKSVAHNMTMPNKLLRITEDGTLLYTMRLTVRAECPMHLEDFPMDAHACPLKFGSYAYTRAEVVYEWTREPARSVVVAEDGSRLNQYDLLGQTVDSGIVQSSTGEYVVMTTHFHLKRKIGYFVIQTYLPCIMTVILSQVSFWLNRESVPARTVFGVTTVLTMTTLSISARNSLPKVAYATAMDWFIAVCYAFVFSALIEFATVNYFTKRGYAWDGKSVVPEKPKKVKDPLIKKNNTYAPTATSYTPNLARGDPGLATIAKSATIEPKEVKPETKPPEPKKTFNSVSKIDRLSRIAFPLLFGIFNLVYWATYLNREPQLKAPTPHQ
GABAA, sequence (P47870 26-512): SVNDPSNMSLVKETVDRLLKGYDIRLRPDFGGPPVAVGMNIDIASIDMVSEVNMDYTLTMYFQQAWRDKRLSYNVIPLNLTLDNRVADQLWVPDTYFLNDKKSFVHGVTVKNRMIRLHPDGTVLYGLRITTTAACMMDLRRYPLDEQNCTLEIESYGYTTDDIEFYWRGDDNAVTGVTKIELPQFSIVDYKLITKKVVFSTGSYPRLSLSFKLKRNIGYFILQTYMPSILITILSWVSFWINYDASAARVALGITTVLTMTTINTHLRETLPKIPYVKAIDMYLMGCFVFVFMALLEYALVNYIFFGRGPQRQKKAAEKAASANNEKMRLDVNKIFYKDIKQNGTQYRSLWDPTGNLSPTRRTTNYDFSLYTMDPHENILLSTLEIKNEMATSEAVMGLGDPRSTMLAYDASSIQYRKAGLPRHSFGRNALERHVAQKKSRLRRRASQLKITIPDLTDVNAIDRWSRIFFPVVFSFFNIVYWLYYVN
GABAA, sequence (P18507 40-475): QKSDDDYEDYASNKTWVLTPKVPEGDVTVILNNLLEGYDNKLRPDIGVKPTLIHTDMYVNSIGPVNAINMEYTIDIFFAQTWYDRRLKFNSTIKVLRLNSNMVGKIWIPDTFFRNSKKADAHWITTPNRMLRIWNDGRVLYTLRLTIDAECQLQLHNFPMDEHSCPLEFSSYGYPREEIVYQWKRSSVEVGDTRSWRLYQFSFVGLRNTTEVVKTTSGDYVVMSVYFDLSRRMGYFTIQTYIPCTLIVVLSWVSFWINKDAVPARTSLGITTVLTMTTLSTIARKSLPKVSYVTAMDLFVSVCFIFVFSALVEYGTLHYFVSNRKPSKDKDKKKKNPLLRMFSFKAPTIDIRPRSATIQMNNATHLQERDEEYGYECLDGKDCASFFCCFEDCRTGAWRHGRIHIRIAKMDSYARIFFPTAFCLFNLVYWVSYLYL
MAOA, sequence (P21397 whole entry, species assumed): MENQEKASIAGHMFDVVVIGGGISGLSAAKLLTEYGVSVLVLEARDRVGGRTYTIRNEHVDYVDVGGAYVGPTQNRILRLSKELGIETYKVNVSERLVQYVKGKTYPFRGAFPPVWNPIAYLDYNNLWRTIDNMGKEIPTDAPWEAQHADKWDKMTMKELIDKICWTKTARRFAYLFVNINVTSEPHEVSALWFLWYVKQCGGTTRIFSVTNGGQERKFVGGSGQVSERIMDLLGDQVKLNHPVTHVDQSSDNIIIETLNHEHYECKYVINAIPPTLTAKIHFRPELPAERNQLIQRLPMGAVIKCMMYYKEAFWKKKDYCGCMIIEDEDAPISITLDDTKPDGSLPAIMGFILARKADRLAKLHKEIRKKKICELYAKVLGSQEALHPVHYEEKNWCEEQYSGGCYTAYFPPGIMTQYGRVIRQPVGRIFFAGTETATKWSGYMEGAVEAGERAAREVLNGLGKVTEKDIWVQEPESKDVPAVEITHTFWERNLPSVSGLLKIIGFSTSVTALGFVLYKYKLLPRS
HRH1, sequence (P35367 whole entry): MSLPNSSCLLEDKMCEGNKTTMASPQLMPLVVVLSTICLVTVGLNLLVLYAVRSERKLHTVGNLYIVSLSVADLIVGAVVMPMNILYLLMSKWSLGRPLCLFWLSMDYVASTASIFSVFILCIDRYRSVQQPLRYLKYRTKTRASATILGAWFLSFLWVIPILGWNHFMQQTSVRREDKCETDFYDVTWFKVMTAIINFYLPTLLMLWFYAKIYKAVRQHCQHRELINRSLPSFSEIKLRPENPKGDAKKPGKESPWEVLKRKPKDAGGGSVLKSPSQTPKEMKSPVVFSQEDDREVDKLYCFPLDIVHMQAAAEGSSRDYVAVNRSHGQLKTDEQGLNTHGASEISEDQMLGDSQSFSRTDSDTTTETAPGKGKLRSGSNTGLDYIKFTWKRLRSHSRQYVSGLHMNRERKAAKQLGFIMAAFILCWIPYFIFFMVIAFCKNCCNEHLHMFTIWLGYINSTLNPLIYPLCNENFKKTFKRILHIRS

Cn1c(=O)c2c(c3cc(Nc4ccnc(F)c4Cl)ccc31)N[C@@H](C1CC1)C(F)(F)CO2 [compound 17, (S)-10-((3-chloro-2-fluoropyridin-4-yl)amino)-2-cyclopropyl-3,3-difluoro-7-methyl-1,2,3,4-tetrahydro-[1,4]oxazepino[2,3-c]quinolin-6(7H)-one]
IC50 (SERT): > 10 µM
Emax (SERT; SERT, Transporter, Blocker, read-out: Max Response): 0%
Emax (HRH1; read-out: Max Response): 14.2%
IC50 (HRH1; read-out: RC50 (IC50)): > 10 µM
IC50 (HTR2B): > 10 µM
Emax (HTR2B; HTR2B, Calcium Flux, Antagonist, read-out: Max Response): 0%
Emax (CAV1.2): 0%
IC50 (CAV1.2): > 10 µM
Emax (MAOA; read-out: Max Response): 0%
IC50 (MAOA; read-out: RC50 (IC50)): > 10 µM
ARID3A mRNA expression in tumor xenografts (ARID3A mRNA): significant increase in ARID3A mRNA expression
IC50 (GABAA): > 10 µM
Emax (GABAA; GABAA, Ion Channel, Blocker, read-out: Max Response): 0%
Hill (COX1): 3.28
Emax (COX1; read-out: Max Response): 93.1%
IC50 (COX1; read-out: RC50 (IC50)): 4.54 µM
IC50 (HTR1A [1]): > 10 µM
Emax (HTR1A [1]; HTR1A, cAMP, Antagonist, read-out: Max Response): 0%
IC50 (CHRM1): > 10 µM
Emax (CHRM1; CHRM1, Calcium Flux, Antagonist, read-out: Max Response): 1.21%
EC50 (HTR1A [2]): > 10 µM
Emax (HTR1A [2]; HTR1A, cAMP, Agonist, read-out: Max Response): 45.6%
IC50 (OPRK1): > 10 µM
Emax (OPRK1; OPRK1, cAMP, Antagonist, read-out: Max Response): 0.95%
